# Patent US20080119548A1, “Control Of Feeding Behavior By Changing Neuronal Energy Balance” (priority 2004, published 2008)
# Where two headings read alike, the source gives them in different places.
# Assays:
# [1] = chronic subcutaneous AICAR 1 g/kg bodyweight for 4 weeks; cited from earlier work
# [2] = test system: hypothalamic AMPKα (α1 and α2); experiment: Western blot of phosphorylated AMPKα in hypothalamus; type: in vivo, mice; conditions: 30 min after i.c.v. injection
# Protocol: Hypothalami were dissected using as landmarks the optic chiasm rostrally, and the mammillary bodies caudally to a depth of 2 mm. Dissected hypothalamic and liver tissue were immediately frozen in liquid nitrogen. Tissues were homogenized in 200 μl of lysis buffer (50 mM Tris-HCl, pH 7.5, 250 mM sucrose, 5 mM sodium pyrophosphate, 50 mM NaF, 1 mM EDTA, 1 mM EGTA, 1 mM DTT, 0.5 mM PMSF, 0.1 mM benzamidine, 50 μg/ml leupeptin, 50 μg/ml soybean trypsin inhibitor). SDS detergent was added to a final 0.2%, and lysates were boiled for 5 min. After the supernatant was harvested, protein concentration was determined by BCA kit (Bio Rad). Phosphorylation of AMPKα was determined on a 4-15% gradient SDS-polyacrylamide gel using anti-phospho-AMPKα (α1 and α2, Thr172) antibody (1:1000, Cell Signaling). Anti-AMPKαt antibody (α1 and α2, 1:1000, Cell Signaling) was used as a loading control.
# [3] = Changes in bodyweight 24 hr after i.c.v. injection; type: in vivo, mice
# Source text: (d) Changes in bodyweight 24 hr after i.c.v. injection of C75, AICAR or compound C (n=4-10). Mice were implanted with permanent stainless steel cannulae into the lateral ventricle of the brain 0.6 mm caudal to Bregma, 1.2 mm lateral to the midline, and sunk to a depth of 2.2 mm below the surface of the skull. Implanted mice were housed in individual cages and utilized for i.c.v. and i.p. injections as indicated. C75 dissolved in RPMI1640 (Gibco-BRL), AICAR (Toronto Research Chemicals Inc) or compound […], Inc.) in saline was injected i.c.v., such that desired dose could be administered in a volume of 2.5 μl, while control groups received vehicle only. Injections were done immediately preceding dark onset and food intake measurements were taken at 1 hr (0-1 hr interval), 3 hr (1-3 hr interval), and 24 hr (3-24 hr interval) after dark onset. […]. treatment groups were i.p. injected with 5 mg/kg bodyweight C75 dissolved in […] of glucose-free RPMI 1 hr before the dark onset, followed by 3 μg/2.5 μl saline i.c.v. AICAR immediately preceding the dark onset. Control groups received 200 μl of glucose free RPMI 1 hr before lights off and 2.5 μl of saline. Administration of i.p. compound C (10 or 30 mg/kg bodyweight) or C75 (10 mg/kg bodyweight) was followed by food intake measurement at the same times indicated.
# BALB/c male mice = experiment: Measurement of food intake after i.c.v. or i.p. injection; type: in vivo; conditions: for reduction in food intake: compound C 5 mg i.c.v.
# Protocol: Male BALB/c mice (7-9 weeks) were purchased from Charles River Laboratories (and housed in a controlled-light (12 hr light/12 hr dark cycle) environment (lights on 0200-1400 h) and allowed ad libitum access to standard laboratory chow and water. For fasting, food was withdrawn from cage at the onset of the dark cycle for 24 hr, but ad libitum access to water was allowed.
# Mice were implanted with permanent stainless steel cannulae into the lateral ventricle of the brain 0.6 mm caudal to Bregma, 1.2 mm lateral to the midline, and sunk to a depth of 2.2 mm below the surface of the skull. Implanted mice were housed in individual cages and utilized for i.c.v. and i.p. injections as indicated. C75 dissolved in RPMI1640 (Gibco-BRL), AICAR (Toronto Research Chemicals Inc) or compound C (46) (FASgen, Inc.) in saline was injected i.c.v., such that desired dose could be administered in a volume of 2.5 μl, while control groups received vehicle only. Injections were done immediately preceding dark onset and food intake measurements were taken at 1 hr (0-1 hr interval), 3 hr (1-3 hr interval), and 24 hr (3-24 hr interval) after dark onset. C75 i.p./AICAR i.c.v. treatment groups were i.p. injected with 5 mg/kg bodyweight C75 dissolved in […] of glucose-free RPMI 1 hr before the dark onset, followed by 3 μg/2.5 μl saline i.c.v. AICAR immediately preceding the dark onset. Control groups received 200 μl of glucose free RPMI 1 hr before lights off and 2.5 μl of saline. Administration of i.p. compound C (10 or 30 mg/kg bodyweight) or C75 (10 mg/kg bodyweight) was followed by food intake measurement at the same times indicated.
# hypothalamic NPY = test system: hypothalamic NPY
# Protocol: Hypothalamic total RNA was purified using Trizol reagent (Gibco-BRL) and Northern blot analysis using 15 μg of total RNA was performed as described by Kim, et al, Am J Physiol Endocrinol Metab., 283, […]-879 (2002). RNA was hybridized with random primed ^32P-labeled DNA probes made from cloned plasmids of mouse AGRP (Genebank #U89486), human NPY (XM004941), rat CART (U10071), and mouse POMC (AH005319). As a loading control, the probe for mouse GAPDH gene was used at the same blot. The signals were quantified using an image analyzer (Molecular Dynamics) and Imagequant software.
# pCREB = experiment: Immunohistochemistry of pCREB in the arcuate nucleus; type: in vivo, mice; conditions: AICAR (3 mg) i.c.v., 20 hr after injection
# Protocol: Free-floating sections were blocked in PBS containing 5% goat serum, 0.1% BSA, 0.05% Triton-X100, 1 mM NaF for 1 hr at room temperature and incubated with anti-phospho-AMPKα (α1 and α2) antibody (1:100) or anti-phospho-CREB antibody (1:500, Cell Signaling) in PBS containing 1% goat serum, 0.1% BSA, 0.05% Triton-X100, 1 mM NaF overnight at 4° C. Signal was visualized by Vectastain ABC kit (Vector). Images of in situ hybridization and immunohistochemistry were visualized using an Axiocam HRc digital camera (Carl Zeiss) and images were acquired using Improvision Openlab software, and quantified by NIH Image program (Macro).
structure (smiles),measurement,setting,value
"NC(=O)c1ncn([C@@H]2O[C@H](CO)[C@@H](O)[C@H]2O)c1N [AICAR, 5-aminoimidazole-4-carboxamide-1-b-D-ribofuranoside]",bodyweight,[1],no impact
same,fat pad mass,[1],reduction in fat pad mass
same,food intake,[1],no impact
same,liver mass,[1],increase in liver mass
same,C75-induced decrease in hypothalamic pAMPKα levels,[2]; i.p. C75 and i.c.v. AICAR,completely reversed
same,hypothalamic pAMPKα level,"[2]; i.p. RPMI and i.c.v. AICAR, vs vehicle",increased
same,bodyweight,[3]; AICAR single dose 3 μg i.c.v.,no significant effect on bodyweight
same,"food intake, % of control","BALB/c male mice; AICAR 3 μg i.c.v., 3-24 hr",135%
same,"total 24 hr food intake, % of control","BALB/c male mice; AICAR 3 μg i.c.v., total 24 hr",130 % of control
same,"food intake, % of control","BALB/c male mice; AICAR 3 μg i.c.v., within 1 hr",230%
same,"food intake at 1 hr, % of the amount of C75/saline treatment","BALB/c male mice; C75 5 mg/kg i.p. followed 1 hr later by AICAR 3 mg i.c.v., p<0.001",346%
same,hypothalamic NPY expression,"hypothalamic NPY; AICAR (3 mg) i.c.v., 20 hrs after administration, p<0.001",significantly increased
same,NPY expression,"hypothalamic NPY; AICAR i.c.v., within 5 hr (data not shown)",no change
same,"pCREB level in the arcuate, % of control",pCREB,231 % of control
c1cc(-c2cnn3cc(-c4ccc(OCCN5CCCCC5)cc4)cnc23)ccn1 [compound C],bodyweight,[3]; compound C 5 mg i.c.v.,weight loss
same,reduction in food intake,BALB/c male mice; 0-1 hr,36.2%
same,reduction in food intake,BALB/c male mice; 3-24 hr,37.8%
same,reduction in food intake,BALB/c male mice; over 24 hr,35.6%
same,"food intake, % of control","BALB/c male mice; compound C 30 mg/kg bodyweight i.p., 0-1 hr",27.4 % of control
same,"food intake, % of control","BALB/c male mice; compound C 30 mg/kg bodyweight i.p., 1-3 hr",3.68 % of control
same,"food intake, % of control","BALB/c male mice; compound C 30 mg/kg bodyweight i.p., 3-24 hr",65.7 % of control
same,"food intake, % of control","BALB/c male mice; compound C 30 mg/kg bodyweight i.p., total",57.8 % of control
